Reference: ChEMBL document CHEMBL6078706, “Deciphering the Comprehensive Structure-Activity Relationship of Sunshinamide for Breast Cancer Therapy through Dual Modulation of Apoptotic and Ferroptotic Pathways via TrxR1 and Gpx4 Inhibition” (J Med Chem, 2024)
The source made the active and inactive calls. No cut-off for these calls is given here.

Key:
[1] = system: MDA-MB-468; assay: Induction of apoptosis in human MDA-MB-468 cells assessed as increase in cleaved caspase 3 level at 25 nM measured after 48 hrs by Western blot analysis; format: functional, cell-based
[2] = Toxicity in female BALB/c mouse implanted with mouse 4T1 cells assessed as lung lesion at 10 mg/kg, iv; format: organism-based; details: in vivo
[3] = system: Cisplatin-resistant 4T1; assay: Antiproliferative activity against mouse Cisplatin-resistant 4T1 cells assessed as reduction in cell viability incubated for 48 hrs by MTT assay; format: functional, cell-based
[4] = system: 4T1; assay: Antitumor activity against mouse 4T1 cells implanted in female BALB/c mouse assessed as increase in MDA level in tumor at 10 mg/kg, iv administered upto 5 days by Western blot analysis; format: functional, organism-based; details: time <= 5.0 day
[5] = system: MDA-MB-468; assay: Induction of ROS production in human MDA-MB-468 cells assessed as increase in ROS level at 25 nM incubated for 6 hrs by DCFH-DA staining based confocal microscopic analysis; format: functional, cell-based
[6] = system: MDA-MB-468; assay: Induction of endoplasmic reticulum (ER) stress-mediated apoptosis in human MDA-MB-468 cells assessed as increase in ATF4 expression at 25 nM measured at 2 hrs by Western blot analysis; format: functional, cell-based
[7] = system: 4T1; assay: Antitumor activity against mouse 4T1 cells implanted in female BALB/c mouse assessed as increase in ATF4 level in tumor at 10 mg/kg, iv administered upto 5 days by Western blot analysis; format: functional, organism-based; details: time <= 5.0 day
[8] = Toxicity in female BALB/c mouse implanted with mouse 4T1 cells assessed as heart inflammation at 10 mg/kg, iv; format: organism-based; details: in vivo
[9] = system: 4T1; assay: Antitumor activity against mouse 4T1 cells implanted in female BALB/c mouse model assessed as increase in TNF-alpha expression in tumor at 10 mg/kg, iv administered upto 5 days; format: functional, organism-based; details: time <= 5.0 day
[10] = Toxicity in female BALB/c mouse implanted with mouse 4T1 cells assessed as kidney damage at 10 mg/kg, iv; format: organism-based; details: in vivo
[11] = Toxicity in female BALB/c mouse implanted with mouse 4T1 cells assessed as lung damage at 10 mg/kg, iv; format: organism-based; details: in vivo
[12] = system: MDA-MB-468; assay: Induction of apoptosis in human MDA-MB-468 cells assessed as increase in activation of caspase at 25 nM by Western blot analysis; format: functional, cell-based; details: time 24.0 hrs
[13] = system: MDA-MB-468; assay: Induction of ROS production in human MDA-MB-468 cells assessed as increase in fluorescent signal at 25 nM incubated for 6 hrs by DCFH-DA staining based flow cytometry analysis; format: functional, cell-based
[14] = system: 4T1; assay: Antitumor activity against mouse 4T1 cells implanted in female BALB/c mouse assessed as increase in phospho PERK level in tumor at 10 mg/kg, iv administered upto 5 days by Western blot analysis; format: functional, organism-based; details: time <= 5.0 day
[15] = system: A549; assay: Antiproliferative activity against human A549 cells assessed as cell viability at 10 nM incubated for 48 hrs by MTT assay; format: functional, cell-based
[16] = system: 4T1; assay: Antitumor activity against mouse 4T1 cells implanted in female BALB/c mouse model assessed as increase in cleaved caspase-3 level in tumor at 10 mg/kg, iv administered upto 5 days; format: functional, organism-based; details: time <= 5.0 day
[17] = system: 4T1; assay: Antitumor activity against mouse 4T1 cells implanted in female BALB/c mouse assessed as reduction in tumor weight at 10 mg/kg, iv administered upto 5 days; format: functional, organism-based; details: time <= 5.0 day
[18] = Toxicity in female BALB/c mouse implanted with mouse 4T1 cells assessed as kidney abnormality at 10 mg/kg, iv; format: organism-based; details: in vivo
[19] = Toxicity in female BALB/c mouse implanted with mouse 4T1 cells assessed as liver damage at 10 mg/kg, iv; format: organism-based; details: in vivo
[20] = system: MDA-MB-468; assay: Antiproliferative activity against human MDA-MB-468 cells assessed as reduction in cell viability at 50 nM incubated for 48 hrs in presence of Z-VAD by MTT assay; format: functional, cell-based
[21] = Toxicity in female BALB/c mouse implanted with mouse 4T1 cells assessed as kidney inflammation at 10 mg/kg, iv; format: organism-based; details: in vivo
[22] = system: 4T1; assay: Antitumor activity against mouse 4T1 cells implanted in female BALB/c mouse assessed as increase in phospho eIF2alpha level in tumor at 10 mg/kg, iv administered upto 5 days by Western blot analysis; format: functional, organism-based; details: time <= 5.0 day
[23] = system: Cisplatin-resistant 4T1; assay: Antitumor activity against mouse Cisplatin-resistant 4T1 cells implanted in female BALB/c mouse assessed as increase in 4-HNE level at 10 mg/kg, ip; format: functional, organism-based
[24] = system: MDA-MB-468; assay: Inhibition of cell migration in human MDA-MB-468 cells assessed as decrease in cell migration at 25 nM incubated for 48 hrs by wound healing assay; format: functional, cell-based
[25] = system: 4T1; assay: Antitumor immunity against mouse 4T1 cells implanted in female BALB/c mouse model assessed as increase in ratio of CD8+ T cells to CD4+ T cells at 10 mg/kg, iv administered upto 5 days by flow cytometry analysis; format: functional, organism-based; details: time <= 5.0 day
[26] = Toxicity in female BALB/c mouse implanted with mouse 4T1 cells assessed as heart damage at 10 mg/kg, iv; format: organism-based; details: in vivo
[27] = system: MDA-MB-468; assay: Induction of mitochondrial dysfunction in human MDA-MB-468 cells assessed as reduction in oxygen consumption rate (OCR) at 25 nM; format: functional, cell-based
[28] = system: MDA-MB-468; assay: Antiproliferative activity against human MDA-MB-468 cells assessed as cell viability at 10 nM incubated for 48 hrs by MTT assay; format: functional, cell-based
[29] = Toxicity in female BALB/c mouse implanted with mouse 4T1 cells assessed as heart abnormality at 10 mg/kg, iv; format: organism-based; details: in vivo
[30] = system: MDA-MB-468; assay: Induction of apoptosis in human MDA-MB-468 cells assessed as increase in caspase 3/7 activation at 25 nM measured at 4 hrs by Western blot analysis; format: functional, cell-based
[31] = system: 4T1; assay: Antitumor activity against mouse 4T1 cells implanted in female BALB/c mouse assessed as reduction in tumor volume at 10 mg/kg, iv administered upto 5 days; format: functional, organism-based; details: time <= 5.0 day
[32] = Toxicity in female BALB/c mouse implanted with mouse 4T1 cells assessed as lung abnormality at 10 mg/kg, iv; format: organism-based; details: in vivo

SMILES: CCCCCCC[C@@H]1CC(=O)N[C@H](Cc2ccccc2)C(=O)N[C@H]2CSSC[C@H](NC2=O)C(=O)O1
- Activity [1]: Active
- Activity [2]: Non-toxic
- Activity [3]: Active
- Activity [4]: Active
- Activity [5]: Active
- Activity [6]: Active
- Activity [7]: Active
- Activity [8]: Non-toxic
- Activity [9]: Active
- Activity [10]: Non-toxic
- Activity [11]: Non-toxic
- Activity [12]: Time-dependent-effect
- Activity [13]: Active
- Activity [14]: Active
- Activity [15]: Active
- Activity [16]: Active
- Activity [17]: Active
- Activity [18]: Non-toxic
- Activity [19]: Non-toxic
- Activity [20]: Active
- Activity [21]: Non-toxic
- Activity [22]: Active
- Activity [23]: Active
- inhibition [24]: Active
- Activity [25]: Active
- Activity [26]: Non-toxic
- Activity [27]: Active
- Activity [28]: Active
- Activity [29]: Non-toxic
- Activity [30]: Active
- Activity [31]: Active
- Activity [32]: Non-toxic
